Experimental data from patent publication US12324839B2, “Testosterone-inducing peptide compounds and associated combinations” (THE ROYAL INSTITUTION FOR THE ADVANCEMENT OF …, priority 2018, dated 2025).
Square brackets hold non-standard residues; d marks the D form. Peptide text beside a SMILES is read from it.

Assays:
[1] = Oral pharmacokinetics after single oral dose; type: in vivo, Brown-Norway rats; details: single oral dose of 10 mg peptide, gavage
Experimental: (§1) For all oral experiments, administration via gavage began between 8:30-8:50 am with a 3-minute delay between each rat. Animals used for pharmacokinetic studies were fasted for 4 hrs before starting gavage at 1 pm with a 3-minute delay between each rat.
For oral pharmacokinetic experiments, jugular blood samples were collected following a single oral dose of 10 mg peptide in 1 ml of vehicle after 5, 15, 30, 45, 60, 90, and 120 minutes. Protein inhibitor cocktail (ROCHE, cOmplete protein inhibitors, Cat #11697498001), which was added into the EDTA collection tubes, was used for KVSQ and RVTQ peptides. Plasma was immediately extracted, and 100 μL of plasma were crashed with 300 μL of 100% methanol, spun at 14 000 RPM for 10 min, and the supernatant harvested. Re-extraction of the precipitant and solubilization of the pellet were as described above.
The analytical instrumentation consisted of a Thermo-Scientific ISQ Quantiva Triple Quadrupole Mass Spectrometer (QQQ), incorporating a heated electrospray ionization (HESI) source, and a Thermo-Scientific UltiMate™ 3000 UHPLC system (including, UltiMate™ 3000 RS autosampler). Analytical conditions were developed using a reference standard in a solution containing 5 μM of the corresponding peptide. The chromatography was resolved by isocratic elution of a binary solvent system incorporating (A) 0.1% Formic Acid (aq) and (B) ACN+0.1% FA and using an Agilent Eclipse Plus™ C18 analytical column (100 mm×2.1 mm ID, 1.8 μm particle). A 5 μL injection volume and solvent flow rate of 150 μL/min were used. The MS/MS acquisition time was 7 min and total run time was 8.3 min/injection. The triple Quadrupole MS/MS instrumentation conditions were as follows: the HESI source voltage was 3200 V, the sheath gas […], auxiliary gas 20 L/min, sweep gas 2.0 L/min, the ion transfer temperature was 350° C., the vaporizer temperature was 350° C., the CID gas was 1.5 (mTorr) and the dwell time was 100 msec. The Q1 Resolution (FWHM) was 0.4 (unitless) and the Q3 resolution (FWHM) was 0.7 (unitless). […]

[2] = tested on: plasma testosterone level in Brown-Norway rats; test: Oral administration (gavage) of peptides, plasma testosterone; type: in vivo; details: for average testosterone levels across doses: gavage ~10, 220, or 420 μg/kg, after two hrs, rats aged 82-131 days; for average testosterone levels: gavage ~10 μg/kg; for testosterone levels: oral gavage ~580 μg/kg
Experimental: (§2) Peptides. Peptides were obtained from CanPeptide (Montreal, Quebec) with >95% purity. All peptides were dissolved in molecular grade, sterile double distilled water to obtain a 1 mM stock solution and stored at −20° C. Peptides used for oral screenings were prepared from 1 mM peptide stock and diluted in sterile tap water in a total volume of 1 mL. Peptides used for pharmacokinetic experiments were diluted at 10 mg/ml using sterile tap water. Some of the peptides were chemically modified after synthesis. The following table summarizes the peptides that have been tested:
(§3) Animal handling, blood collections, surgical procedures, and oral administration of peptides. Brown-Norway rats aged 22-28, 36-42, or 50-56 days-old were purchased from Charles River Laboratories (Senneville, Quebec) and aged until needed. Rats were kept on a 12 L/12 D day cycle with lights on at 7 AM and access to food and water ad libitum.
(§4) For all experiments, plasma samples were obtained via percutaneous jugular puncture and collected in EDTA KE/1.3 tubes (Sarstedt, Numbrecht, Germany, Cat #5072511). Blood collection time points are indicated in each figure legend. Samples were centrifuged at 1 300 RCF for 10 min, and the plasma was stored in 2 mL Wheaton glass vials (Fisher Scientific, Hampton, NH, Cat #03 337 21A) and kept at −20° C. until needed.
as §1
(§5) Plasma steroid measurements. Testosterone levels were measured using Cayman (Ann Arbor, MI) EIA kit Cat #582701, and corticosterone levels were measured using Cayman EIA kit Cat #501320. All samples were measured in duplicate according to the manufacturer's instructions. Samples were diluted until the average control levels fitted the middle of the standard curve. The number of animals used for each experiment is noted in the corresponding figure legend.

[3] = Peptide stability in plasma; type: in vitro ADME, Brown-Norway rats; details: for half-life in plasma (rank order): 4 μM peptide (KVSQ 12.5 μM) in 100 μL rat plasma, 37° C., 1-120 minutes; for stability / degradation in plasma: in vitro rat plasma incubation
Experimental: Peptide stability in plasma, oral pharmacokinetics, and quantification. For peptide stability experiments, plasma from Brown-Norway rats age 90-140 days was collected and stored at −20° C. until further use. The plasma was thawed, spun at 12 000 RPM for 10 min, and kept at 4° C. 4 μM of the various peptides were incubated with 100 μL of plasma that was warmed at 37° C. for 10 min before use. After 1, 15, 30, 60, 90 or 120 minutes, the plasma/peptide samples were crashed with 300 μL of 100% methanol, spun at 14 000 RPM for 10 min, and the supernatant collected. The methanol in the supernatant was evaporated and the samples were re-extracted. The final pellet was solubilized in 5 μL methanol followed by the addition of 100 μL of sterile double distilled water. The extracted samples were transferred to plastic tubes and placed in the autoloader of the mass spectrometer.
The analytical instrumentation consisted of a Thermo-Scientific ISQ Quantiva Triple Quadrupole Mass Spectrometer (QQQ), incorporating a heated electrospray ionization (HESI) source, and a Thermo-Scientific UltiMate™ 3000 UHPLC system (including, UltiMate™ 3000 RS autosampler). Analytical conditions were developed using a reference standard in a solution containing 5 μM of the corresponding peptide. The chromatography was resolved by isocratic elution of a binary solvent system incorporating (A) 0.1% Formic Acid (aq) and (B) ACN+0.1% FA and using an Agilent Eclipse Plus™ C18 analytical column (100 mm×2.1 mm ID, 1.8 μm particle). A 5 μL injection volume and solvent flow rate of 150 μL/min were used. The MS/MS acquisition time was 7 min and total run time was 8.3 min/injection. The triple Quadrupole MS/MS instrumentation conditions were as follows: the HESI source voltage was 3200 V, the sheath gas […], auxiliary gas 20 L/min, sweep gas 2.0 L/min, the ion transfer temperature was 350° C., the vaporizer temperature was 350° C., the CID gas was 1.5 (mTorr) and the dwell time was 100 msec. The Q1 Resolution (FWHM) was 0.4 (unitless) and the Q3 resolution (FWHM) was 0.7 (unitless). The instrument ran in a selected reaction monitoring (SRM), positive ion detection mode at various collision energies (CE) for the following mass transitions: • Ac-RITQdS-NH2: p84 (m/z 645→m/z 295, m/z 396) • RdVTQ: p72 (m/z 503→m/z 211). • Ac-RdITQ-NH2: p87 (m/z 558→m/z 391, m/z 267) • RVTQ: p64 (m/z 503→m/z 211; m/z 503→m/z 357 and m/z 503→m/z 256) • KVSQ: p95 (m/z 461→m/z 129) and (m/z 461→m/z 234)

[4] = tested on: plasma corticosterone level in Brown-Norway rats; test: Oral administration (gavage) of peptides, plasma corticosterone; type: in vivo; details: gavage with increasing concentrations, 2 hrs
Experimental: as §2, §3
For all experiments, plasma samples were obtained via percutaneous jugular puncture and collected in EDTA KE/1.3 tubes (Sarstedt, Numbrecht, Germany, Cat #5072511). […]
Plasma steroid measurements. Testosterone levels were measured using Cayman (Ann Arbor, MI) EIA kit Cat #582701, and corticosterone levels were measured using Cayman EIA kit Cat #501320. All samples were measured in duplicate according to the manufacturer's instructions. […]

[5] = tested on: plasma testosterone level in Brown-Norway rats; test: Subcutaneous osmotic pump infusion of tetrapeptides, plasma testosterone (Example I); type: in vivo
Experimental: Osmotic pumps. Model 2006 osmotic pumps, infusing 0.15 μL/hr, were purchased from Alzet (Cupertino, CA). The peptide concentration loaded into the pumps was adjusted to deliver the doses indicated in each figure. The pump infusion rates varied by production lot and were adjusted accordingly. Pumps were loaded 24 hrs prior to surgical implantation under sterile conditions and were kept at 37° C. in PBS.
as §3, §4
Brown-Norway rats aged ˜29 day-old were implanted with osmotic infusion pumps in the interscapular region under general anesthesia with isoflurane following antisepsis using iodine. The surgical wound was closed with two to three staples that were removed a week after the surgery. Subcutaneous carprofen (Zoetis, Parsippany, NJ) was given before the surgical procedure and in the following two days for pain management.
as §5

[6] = tested on: plasma corticosterone level in Brown-Norway rats; test: Subcutaneous osmotic pump infusion of TV159-172 derivatives and N163-166, plasma corticosterone (Example II); type: in vivo; details: 40 days after implantation
Experimental: (§6) Animal handling, serum, plasma, and intratesticular sample collection. Brown-Norway rats aged 36-42 days old were purchased from Charles River and aged until ˜60 days old. Rats were kept on a 12 L/12 D day cycle with lights on at 7 AM and had access to food and water ad libitum.
(§7) Jugular samples were collected via percutaneous puncture and samples were collected in EDTA coated tubes (plasma) and centrifuged at 1,300 RCF for 10 min and stored in 2 mL Wheaton glass vials (Fisher Scientific, Hampton, NH, Cat #03 337 21A) and kept at −20° C. Animals were handled according to protocols approved by the McGill University Animal Care and Use Committee, which included standard operating procedures for the amount and frequency of blood sample collections.
(§8) Hormone measurements. Testosterone levels were measured using Cayman (Ann Arbor, MI) EIA kit Cat #582701 and corticosterone levels were measured using Cayman EIA kit Cat #501320. Plasma fluid samples were diluted until controls fitted the middle of the standard curve used.
(§9) Osmotic pumps. Alzet 2006 osmotic pumps were purchased from Alzet (Cupertino, CA) with an infusion rate of 0.15 μL/hr. The peptide concentration loaded into the pumps accounted for weight gain at the time of collection and was adjusted to deliver the doses indicated in each figure. The pump infusion rates varied by production lot and were adjusted accordingly. […]

[7] = tested on: plasma testosterone level in Brown-Norway rats; test: Subcutaneous osmotic pump infusion of TV159-172 derivatives and N163-166, plasma testosterone (Example II); type: in vivo; details: 309 ng/kg/day, 7 days after implantation
Experimental: as §6, §7, §8, §9

[8] = samples at age 54 days (first round), ~370 ng/kg/day

CC[C@H](C)[C@H](NC(=O)[C@H](CCCNC(=N)N)NC(C)=O)C(=O)N[C@H](C(=O)N[C@@H](CCC(N)=O)C(=O)N[C@H](CO)C(N)=O)[C@@H](C)O [Ac-RITQdS-NH2] (Ac-RITQ[dS]-NH2)
Tmax ([1]; Brown-Norway, rat, plasma, read-out: time to peak concentration in blood (converted)): ~15 min
average testosterone levels across doses [2]: increased average testosterone levels
average testosterone levels ([2]; third screening, 2 hrs): increased, although not significantly
half-life in plasma (rank order) [3]: Ac-RITQdS-NH2>RdVTQ>Ac-RdITQ-NH2>RITQ>RVTQ>KVSQ
stability / degradation in plasma [3]: most stable peptide

CC[C@@H](C)[C@@H](NC(=O)[C@H](CCCNC(=N)N)NC(C)=O)C(=O)N[C@H](C(=O)N[C@@H](CCC(N)=O)C(N)=O)[C@@H](C)O [Ac-RdITQ-NH2] (Ac-R[dI]TQ-NH2)
average testosterone levels across doses [2]: increased average testosterone levels
average testosterone levels ([2]; third screening, 2 hrs): increased, although not significantly
half-life in plasma (rank order) [3]: Ac-RITQdS-NH2>RdVTQ>Ac-RdITQ-NH2>RITQ>RVTQ>KVSQ

CC(C)[C@H](NC(=O)[C@@H](N)CCCCN)C(=O)N[C@@H](CO)C(=O)N[C@@H](CCC(N)=O)C(=O)O [KVSQ] (H-KVSQ-OH)
circulating peptide levels (detection) [1]: not detected
average testosterone levels across doses [2]: increased average testosterone levels
average testosterone levels ([2]; third screening, 2 hrs): increased, although not significantly
half-life in plasma (rank order) [3]: Ac-RITQdS-NH2>RdVTQ>Ac-RdITQ-NH2>RITQ>RVTQ>KVSQ
stability / degradation in plasma [3]: rapid degradation

CC[C@H](C)[C@H](NC(=O)[C@@H](N)CCCNC(=N)N)C(=O)N[C@H](C(=O)N[C@@H](CCC(N)=O)C(=O)O)[C@@H](C)O [RITQ] (H-RITQ-OH)
corticosterone levels, dose-response [4]: no corresponding significant changes
circulating testosterone levels [5, 8]: non-significant increase
circulating testosterone levels ([5]; samples at age 65 days (second round), ~330 ng/kg/day): significant increase
testosterone levels, dose-response ([2]; gavage 10 μg/kg, 2 hrs): significant increase
testosterone levels, dose-response ([2]; gavage ~220 μg/kg, 2 hrs): non-significant decrease
testosterone levels, dose-response ([2]; gavage ~520 μg/kg, 2 hrs): significant increase
average testosterone levels ([2]; third screening, 2 hrs): increased, although not significantly
steroid (testosterone) levels ([2]; third screening, gavage ~220 μg/kg, 2 hrs): decrease in steroid levels
half-life in plasma (rank order) [3]: Ac-RITQdS-NH2>RdVTQ>Ac-RdITQ-NH2>RITQ>RVTQ>KVSQ
stability / degradation in plasma [3]: rapid time-dependent degradation

CC(C)[C@H](NC(=O)[C@@H](N)CCCNC(=N)N)C(=O)N[C@H](C(=O)N[C@@H](CCC(N)=O)C(=O)O)[C@@H](C)O [RVTQ] (H-RVTQ-OH)
corticosterone levels ([6]; 23 ng/kg/day): decreased
corticosterone levels ([6]; treatment inducing testosterone formation (309 ng/kg/day)): not affected
circulating peptide levels (detection) [1]: not detected
increase in plasma testosterone levels ([5]; 377 ng/kg/d, ~54 day-old rats, vs water): two-fold
testosterone levels [7]: significantly increased
testosterone levels ([2]; 3 hrs sampling time): did not show an effect
half-life in plasma (rank order) [3]: Ac-RITQdS-NH2>RdVTQ>Ac-RdITQ-NH2>RITQ>RVTQ>KVSQ
stability / degradation in plasma [3]: rapid time-dependent degradation

CC(C)[C@@H](NC(=O)[C@@H](N)CCCNC(=N)N)C(=O)N[C@H](C(=O)N[C@@H](CCC(N)=O)C(=O)O)[C@@H](C)O [RdVTQ] (H-R[dV]TQ-OH)
corticosterone levels, dose-response [4]: no corresponding significant changes
testosterone levels, dose-response ([2]; gavage 10 μg/kg, 2 hrs): trend to increase
testosterone levels, dose-response ([2]; gavage 800 μg/kg, 2 hrs): significant increases
testosterone levels, dose-response ([2]; gavage ~400 μg/kg, 2 hrs): significant increases
average testosterone levels across doses [2]: increased average testosterone levels
average testosterone levels, dose-response ([2]; gavage, all doses tested, 2 hrs): increased the average testosterone levels at all doses tested
average testosterone levels ([2]; third screening, 2 hrs): increased, although not significantly
half-life in plasma (rank order) [3]: Ac-RITQdS-NH2>RdVTQ>Ac-RdITQ-NH2>RITQ>RVTQ>KVSQ

Ac-KdITQ-NH2
average testosterone levels ([2]; third screening, 2 hrs): increased, although not significantly

KITQ
circulating testosterone levels [5, 8]: significant increase

RVTQdS-NH2
testosterone levels ([2]; 2 hr post-treatment): best significant increase in testosterone levels
testosterone levels ([2]; 3 hrs sampling time): significantly increased testosterone levels
